pEC50, pIC50: −log10 of the molar value.
Assays:
PRMT5/MEP50 complex = PRMT5/MEP50 complex (Homo sapiens, UniProt O14744); assay: Inhibition of recombinant human fetal brain FLAG-tagged PRMT5/full length human testis 6His-tagged MEP50 expressed in baculovirus infected insect Sf9 cells using human histone H4 (1 to 15 residues) as substrate preincubated for 30 mins followed by [3H]-SAM addition
[1] = Antiproliferative activity against human Z138 cells assessed as inhibition of cell viability after 5 days by Cell-Titer Glo assay; type: functional, cell-based; conditions: Z-138, 120 h
[2] = target: Protein arginine N-methyltransferase 5 (Homo sapiens, UniProt O14744); assay: Inhibition of PRMT5 in human Z138 cells assessed as decrease in di-methyl arginine levels after 96 hrs by Western blot method; type: cell-based
Sequence of Protein arginine N-methyltransferase 5 (O14744 whole entry): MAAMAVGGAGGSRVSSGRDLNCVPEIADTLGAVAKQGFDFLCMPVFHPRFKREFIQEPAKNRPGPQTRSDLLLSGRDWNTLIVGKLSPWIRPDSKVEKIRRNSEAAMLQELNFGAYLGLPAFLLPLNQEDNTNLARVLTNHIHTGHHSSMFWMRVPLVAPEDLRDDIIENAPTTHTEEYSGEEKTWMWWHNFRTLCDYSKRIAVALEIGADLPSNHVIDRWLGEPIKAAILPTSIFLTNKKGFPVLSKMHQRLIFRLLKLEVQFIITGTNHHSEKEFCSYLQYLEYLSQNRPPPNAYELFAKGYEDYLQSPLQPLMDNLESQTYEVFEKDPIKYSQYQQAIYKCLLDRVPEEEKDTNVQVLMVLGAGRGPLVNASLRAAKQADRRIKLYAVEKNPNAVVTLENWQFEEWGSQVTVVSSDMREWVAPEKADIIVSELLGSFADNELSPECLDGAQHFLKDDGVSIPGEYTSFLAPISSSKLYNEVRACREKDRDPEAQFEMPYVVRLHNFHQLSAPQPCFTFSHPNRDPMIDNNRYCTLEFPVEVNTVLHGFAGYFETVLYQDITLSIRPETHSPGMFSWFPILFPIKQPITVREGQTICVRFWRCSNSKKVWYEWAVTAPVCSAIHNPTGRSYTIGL

Sequence of PRMT5/MEP50 complex (O14744 whole entry, the tested form may be a part): as the sequence (O14744 whole entry) above
Sequence of PRMT5/MEP50 complex (Q9BQA1 whole entry, further chain, the tested form may be a part): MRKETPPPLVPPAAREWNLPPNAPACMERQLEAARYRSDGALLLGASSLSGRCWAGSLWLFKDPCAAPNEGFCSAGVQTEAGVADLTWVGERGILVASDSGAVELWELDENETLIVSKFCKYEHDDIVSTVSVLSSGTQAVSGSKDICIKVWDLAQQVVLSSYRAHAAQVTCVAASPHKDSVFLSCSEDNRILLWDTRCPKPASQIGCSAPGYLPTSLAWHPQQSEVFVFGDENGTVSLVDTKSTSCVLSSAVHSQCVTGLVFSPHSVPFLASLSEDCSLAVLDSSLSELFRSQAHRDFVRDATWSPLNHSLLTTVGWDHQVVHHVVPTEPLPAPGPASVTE

SMILES	pIC50 (PRMT5/MEP50 complex)	pEC50 [1]	pEC50 [2]
OC(COCC1CC1)CN1CCc2ccccc2C1 (centres undefined)	5.00 to 6.00	< 4.40	–
OC(COCC1CCCO1)CN1CCc2ccccc2C1 (centres undefined)	4.40 to 5.00	< 4.40	–
OC(COC1CCCCCC1)CN1CCc2ccccc2C1 (centres undefined)	5.00 to 6.00	< 4.40	–
OC(COCC1CCNC1)CN1CCc2ccccc2C1 (centres undefined)	< 4.40	< 4.40	–
O=C(NCC(O)CN1CCc2ccccc2C1)c1cccc(NC2CCOC2)c1 (centres undefined)	> 7.00	–	6.00 to 7.00
O[C@H](COc1cccc(CNC2CCCC2)c1)CN1CCc2ccccc2C1	6.00 to 7.00	4.40 to 5.00	–
CN(Cc1ccc(OCC(O)CN2CCc3ccccc3C2)cc1)C1CCCC1 (centres undefined)	5.00 to 6.00	< 4.40	–
O=C(NC[C@H](O)CN1CCc2ccccc2C1)c1cccc(NC2CCOCC2)c1	> 7.00	6.00 to 7.00	–
CCCCNCc1cccc(COCC(O)CN2CCc3ccccc3C2)c1 (centres undefined)	6.00 to 7.00	< 4.70	–
Cc1nn(-c2ccccc2)c(C)c1COCC(O)CN1CCc2ccccc2C1 (centres undefined)	5.00 to 6.00	< 4.40	–
O=C1CN(c2ccccc2F)CCN1CC(O)CN1CCc2ccccc2C1 (centres undefined)	–	–	< 4.30
OC(COCc1ccc(OCc2ccccc2)cc1)CN1CCc2ccccc2C1 (centres undefined)	5.00 to 6.00	< 4.70	–
Cc1cn(C)c2cccc(OCC(=O)NCC(O)CN3CCc4ccccc4C3)c12 (centres undefined)	> 7.00	–	6.00 to 7.00
OC(COc1cccc(-c2ccccc2F)c1)CN1CCc2ccccc2C1 (centres undefined)	6.00 to 7.00	–	5.00 to 6.00
Cc1ccccc1N1CCN(CC(O)CN2CCc3ccccc3C2)C(=O)C1 (centres undefined)	–	–	< 4.30
OC(COC1CCNCC1)CN1CCc2ccccc2C1 (centres undefined)	< 4.40	< 4.40	–
O=C(Nc1cccc(OCC(O)CN2CCc3ccccc3C2)c1)c1cccnn1 (centres undefined)	5.00 to 6.00	–	5.00 to 6.00
CN1CCC(OCC(O)CN2CCc3ccccc3C2)C1 (centres undefined)	< 4.40	< 4.40	–
CC(C(O)COc1cccc(CNC2CCCC2)c1)N1CCc2ccccc2C1 (centres undefined)	5.00 to 6.00	< 4.40	–
O=C(Nc1cccc(OCC(O)CN2CCc3ccccc3C2)c1)c1cccnc1 (centres undefined)	5.00 to 6.00	–	5.00 to 6.00
OC(COCC1CCCCO1)CN1CCc2ccccc2C1 (centres undefined)	< 4.40	< 4.40	–
CC(C)n1nccc1-c1ccc(OCC(O)CN2CCc3ccccc3C2)cc1 (centres undefined)	4.40 to 5.00	< 4.40	–

SMILES	pIC50 (PRMT5/MEP50 complex)	pEC50 [1]	pEC50 [2]
OC(COc1ccc(-n2cncn2)cc1)CN1CCc2ccccc2C1 (centres undefined)	5.00 to 6.00	< 4.70	–
Cn1nccc1-c1cccc(CC(=O)NCC(O)CN2CCc3ccccc3C2)c1 (centres undefined)	6.00 to 7.00	–	6.00 to 7.00
CC(C)n1ccc(-c2ccc(OCC(O)CN3CCc4ccccc4C3)cc2)n1 (centres undefined)	5.00 to 6.00	< 4.40	–
CCn1ccnc1COCC(O)CN1CCc2ccccc2C1 (centres undefined)	< 4.40	< 4.40	–
O=C(NCC(O)CN1CCc2ccccc2C1)c1cccc(OC2CCOCC2)c1 (centres undefined)	6.00 to 7.00	–	6.00 to 7.00
Cn1ccnc1-c1ccccc1OCC(=O)NCC(O)CN1CCc2ccccc2C1 (centres undefined)	6.00 to 7.00	–	5.00 to 6.00
OC(COCc1c(Cl)cccc1Cl)CN1CCc2ccccc2C1 (centres undefined)	5.00 to 6.00	4.40 to 5.00	–
O=C(c1ccc(Cn2ccc(-c3ccc(OCC(O)CN4CCc5ccccc5C4)cc3)n2)cc1)N1CCCC1 (centres undefined)	5.00 to 6.00	4.40 to 5.00	–
O=C(COc1ccccc1F)NCC(O)CN1CCc2ccccc2C1 (centres undefined)	6.00 to 7.00	4.30 to 5.00	6.00 to 7.00
Cn1cc2ccc(-c3cccc(OCC(O)CN4CCc5ccccc5C4)c3)cc2n1 (centres undefined)	6.00 to 7.00	–	< 4.70
OC(COC1CCCNC1)CN1CCc2ccccc2C1 (centres undefined)	< 4.40	< 4.40	–
OC(COC1CCN(Cc2ccccc2)CC1)CN1CCc2ccccc2C1 (centres undefined)	5.00 to 6.00	< 4.40	–
N#Cc1cccc(OCC(=O)NCC(O)CN2CCc3ccccc3C2)c1 (centres undefined)	6.00 to 7.00	4.30 to 5.00	6.00 to 7.00
CC(C)(C)OC(=O)N1CC(OCC(O)CN2CCc3ccccc3C2)C1 (centres undefined)	5.00 to 6.00	< 4.40	–
O=c1cc(-c2ccccc2)ccn1C[C@H](O)CN1CCc2ccccc2C1	–	–	< 4.30
O=C(Cc1cccc2cccnc12)NCC(O)CN1CCc2ccccc2C1 (centres undefined)	6.00 to 7.00	–	5.00 to 6.00
Cc1ccc(OCC(=O)NCC(O)CN2CCc3ccccc3C2)cc1 (centres undefined)	6.00 to 7.00	4.30 to 5.00	4.30 to 5.00
COc1cc2c(cc1OC)CN(CC(O)COc1cccc(CNC3CCCC3)c1)CC2 (centres undefined)	< 4.40	4.40 to 5.00	–
OC(COC1CCOCC1)CN1CCc2ccccc2C1 (centres undefined)	4.40 to 5.00	< 4.40	–
COc1ccc(OCC(=O)NCC(O)CN2CCc3ccccc3C2)cc1 (centres undefined)	6.00 to 7.00	4.30 to 5.00	6.00 to 7.00
O=C1CN(c2ccc(CO)cc2)CCN1CC(O)CN1CCc2ccccc2C1 (centres undefined)	6.00 to 7.00	–	5.00 to 6.00
O=C1CN(c2cccc(Cl)c2)CCN1CC(O)CN1CCc2ccccc2C1 (centres undefined)	> 7.00	–	5.00 to 6.00
